According to US11795460B2, “Compositions and methods for TTR gene editing and treating ATTR amyloidosis” (Intellia Therapeutics, Inc., priority 2017, dated 2023):

Columns and labels:
TTR [1] = assay: TTR editing in primary cyno hepatocytes electroporated with Spy Cas9 protein and dgRNAs (Tables 10, 11); type: cell-based, cynomolgus monkey; conditions: primary cyno hepatocytes electroporated with Spy Cas9 protein (RNP) and cyno specific dgRNAs
Experimental: (§1) Primary liver hepatocytes. Primary human liver hepatocytes (PHH) and primary cynomolgus liver hepatocytes (PCH) (Gibco) were cultured per the manufacturer's protocol (Invitrogen, protocol 11.28.2012). In brief, the cells were thawed and resuspended in hepatocyte thawing medium with supplements (Gibco, Cat. CM7000) followed by centrifugation at 100 g for 10 minutes for human and 80 g for 4 minutes for cyno. The supernatant was discarded and the pelleted cells resuspended in hepatocyte plating medium plus supplement pack (Invitrogen, Cat. A1217601 and CM3000). Cells were counted and plated on Bio-coat collagen I coated 96-well plates (ThermoFisher, Cat. 877272) at a density of 33,000 cells/well for human or 60,000 cells/well for cyno (or 65,000 cells/well when assaying effects on TTR protein, described further below). Plated cells were allowed to settle and adhere for 6 or 24 hours in a tissue culture incubator at 37° C. and 5% CO2 atmosphere. After incubation cells were checked for monolayer formation and media was replaced with hepatocyte culture medium with serum-free supplement pack (Invitrogen, Cat. A1217601 and CM4000).
(§2) […] formation was performed prior to electroporation or transfection of Spy Cas9 protein loaded with guide RNAs (RNPs) onto cells. For dual guide (dgRNAs), individual crRNA and trRNA was pre-annealed by mixing equivalent amounts of reagent and incubating at 95° C. for 2 min and cooling to room temperature. Single guide (sgRNAs) were boiled at 95° C. for 2 min and cooling to room temperature. The boiled dgRNA or sgRNA was incubated with Spy Cas9 protein in Optimem for 10 minutes at room temperature to form a ribonucleoprotein (RNP) complex.
(§3) For RNP electroporation into primary human and cyno hepatocytes, the cells are thawed and resuspended in Lonza electroporation Primary Cell P3 buffer at a concentration of 2500 cells per μL for human hepatocytes and 3500 cells per μL for cyno hepatocytes. A volume of 20 μL of resuspended cells and 5 μL of RNP are mixed together per guide. 20 μL of the mixture is placed into a Lonza electroporation plate. The cells were electroporated using the Lonza nucleofector with the preset protocol EX-147. Post electroporation, the cells are transferred into a Biocoat plate containing pre-warmed maintenance media and placed in a tissue culture incubator at 37° C. and 5% CO2.
(§4) Transfected cells were harvested post-transfection at 24, 48, or 72 hours. The genomic DNA was extracted from each well of a 96-well plate using 50 μL/well BuccalAmp DNA Extraction solution (Epicentre, Cat. QE09050) per manufacturer's protocol. All DNA samples were subjected to PCR and subsequent NGS analyses, as described herein.
(§5) To quantitatively determine the efficiency of editing at the target location in the genome, sequencing was utilized to identify the presence of insertions and deletions introduced by gene editing.
(§6) Primers were designed around the target site within the gene of interest (e.g. TTR), and the genomic area of interest was amplified.
(§7) Additional PCR was performed per the manufacturer's protocols (Illumina) to add chemistry for sequencing. The amplicons were sequenced on an Illumina MiSeq instrument. The reads were aligned to a reference genome (e.g., the human reference genome (hg38), the cynomologus reference genome (mf5), the rat reference genome (rn6), or the mouse reference genome (mm10)) after eliminating those having low quality scores. The resulting files containing the reads were mapped to the reference genome (BAM files), where reads that overlapped the target region of interest were selected and the number of wild type reads versus the number of reads which contain an insertion, substitution, or deletion was calculated.
(§8) The editing percentage (e.g., the “editing efficiency” or “percent editing” or “indel frequency”) is defined as the total number of sequence reads with insertions/deletions (“indels”) or substitutions over the total number of sequence reads, including wild type. […]

TTR [2] = assay: TTR editing in HEK293_Cas9 cells transfected with dgRNAs (Table 4); type: cell-based, human; conditions: HEK293_Cas9 cells (constitutively express Spy Cas9) transfected with dgRNAs
Experimental: HEK293 Cas9 cell line. The human embryonic kidney adenocarcinoma cell line HEK293 constitutively expressing Spy Cas9 (“HEK293_Cas9”) was cultured in DMEM media supplemented with 10% fetal bovine serum and 500 μg/ml G418. Cells were plated at a density of 10,000 cells/well in a 96-well plate 24 hours prior to transfection. Cells were transfected with Lipofectamine RNAiMAX (ThermoFisher, Cat. 13778150) per the manufacturer's protocol. Cells were transfected with a lipoplex containing individual crRNA (25 nM), trRNA (25 nM), Lipofectamine RNAiMAX (0.3 μL/well) and OptiMem.
as §4, §5, §6, §7
(§9) The editing percentage (e.g., the “editing efficiency” or “percent editing” or “indel frequency”) is defined as the total number of sequence reads with insertions/deletions (“indels”) or substitutions over the total number of sequence reads, including wild type.
(§10) Guides in dgRNA format targeting human TTR and the cynomologus matched sequences were delivered to HEK293 Cas9, HUH7 and HepG2 cell lines, as well as primary human hepatocytes and primary cynomolgus monkey hepatocytes as described in Example 1. Percent editing was determined for crRNAs comprising each guide sequence across each cell type and the guide sequences were then rank ordered based on highest % edit. The screening data for the guide sequences in Table 1 in all five cell lines are listed below (Table 4 through 11).

TTR [3] = assay: TTR editing in primary human hepatocytes transfected with Spy Cas9 mRNA and dgRNAs (Table 9); type: cell-based; conditions: dgRNA co-transfected with Spy Cas9 mRNA (SEQ ID NO:2)
Experimental: as §1
Lipofectamine RNAiMax (ThermoFisher, Cat. 13778150) based transfections were conducted as per the manufacturer's protocol. Cells were sequentially transfected with a lipoplex containing Spy Cas9 mRNA (100 ng), Lipofectamine RNAiMax (0.4 μL/well) and OptiMem followed by a separate lipoplex containing crRNA (25 nM) and tracer RNA (25 nM) or sgRNA (25 nM), Lipofectamine RNAiMax (0.4 μL/well) and OptiMem.
as §4, §5, §6, §7, §9, §10

TTR [4] = assay: TTR editing in primary human hepatocytes electroporated with Spy Cas9 protein loaded with dgRNAs (Table 7); type: cell-based; conditions: dgRNA electroporated with Spy Cas9 protein (RNP)
Experimental: as §1, §2, §3, §4, §5, §6, §7, §8

TTR [5] = assay: TTR editing in primary human hepatocytes transfected with Spy Cas9 protein (RNP) loaded with dgRNAs (Table 8); type: cell-based; conditions: dgRNA transfected with Spy Cas9 protein (RNP)
Experimental: as §1, §2
For RNP lipoplex transfections, cells were transfected with Lipofectamine RNAiMAX (ThermoFisher, Cat. 13778150) per the manufacturer's protocol. Cells were transfected with an RNP containing Spy Cas9 (10 nM), individual guide (10 nM), tracer RNA (10 nM), Lipofectamine RNAiMAX (1.0 μL/well) and OptiMem. RNP formation was performed as described above.
as §4, §5, §6, §7, §9
Guides in dgRNA format targeting human TTR and the cynomologus matched sequences were delivered to HEK293 Cas9, HUH7 and HepG2 cell lines, as well as primary human hepatocytes and primary cynomolgus monkey hepatocytes as described in Example 1. […]

TTR [6] = assay: TTR editing in HUH7 cells transfected with Spy Cas9 mRNA and dgRNAs (Table 5); type: cell-based, human; conditions: HUH7 cells co-transfected with Spy Cas9 mRNA (SEQ ID NO:2) and dgRNAs
Experimental: HUH7 cell line. The human hepatocellular carcinoma cell line HUH7 (Japanese Collection of Research Bioresources Cell Bank, Cat. JCRB0403) was cultured in DMEM media supplemented with 10% fetal bovine serum. Cells were plated on at a density of 15,000 cells/well in a 96-well plate 20 hours prior to transfection. Cells were transfected with Lipofectamine MessengerMAX (ThermoFisher, Cat. LMRNA003) per the manufacturer's protocol. Cells were sequentially transfected with a lipoplex containing Spy Cas9 mRNA (100 ng), MessengerMAX (0.3 μL/well) and OptiMem followed by a separate lipoplex containing individual crRNA (25 nM), tracer RNA (25 nM), MessengerMAX (0.3 μL/well) and OptiMem.
as §4, §5, §6, §7, §9, §10

TTR [7] = assay: TTR editing in HepG2 cells transfected with Spy Cas9 mRNA and dgRNAs (Table 6); type: cell-based, human; conditions: HepG2 cells co-transfected with Spy Cas9 mRNA (SEQ ID NO:2) and dgRNAs
Experimental: HepG2 cell line. The human hepatocellular carcinoma cell line HepG2 (American Type Culture Collection, Cat. HB-8065) was cultured in DMEM media supplemented with 10% fetal bovine serum. Cells were counted and plated on Bio-coat collagen I coated 96-well plates (ThermoFisher, Cat. 877272) at a density of 10,000 cells/well in a 96-well plate 24 hours prior to transfection. Cells were transfected with Lipofectamine 2000 (ThermoFisher, Cat. 11668019) per the manufacturer's protocol. Cells were sequentially transfected with lipoplex containing Spy Cas9 mRNA (100 ng), Lipofectamine 2000 (0.2 μL/well) and OptiMem followed by a separate lipoplex containing individual crRNA (25 nM), tracer RNA (25 nM), Lipofectamine 2000 (0.2 μL/well) and OptiMem.
as §4, §5, §6, §7, §9, §10

| Sequence | Avg % Deletion (TTR [1]) | Avg % Edit (TTR [1]) | Avg % Insert (TTR [1]) | Avg % Deletion (TTR [2]) | Avg % Edit (TTR [2]) | Avg % Insert (TTR [2]) | Avg % Deletion (TTR [3]) | Avg % Edit (TTR [3]) | Avg % Insert (TTR [3]) | Avg % Deletion (TTR [4]) | Avg % Edit (TTR [4]) | Avg % Insert (TTR [4]) | Avg % Deletion (TTR [5]) | Avg % Edit (TTR [5]) | Avg % Insert (TTR [5]) | Avg % Deletion (TTR [6]) | Avg % Edit (TTR [6]) | Avg % Insert (TTR [6]) | Avg % Deletion (TTR [7]) | Avg % Edit (TTR [7]) | other results |
| --- | --- | --- | --- | --- | --- | --- | --- | --- | --- | --- | --- | --- | --- | --- | --- | --- | --- | --- | --- | --- | --- |
| AAGUGACUUCCAGUAAGAUU (tested as dual guide RNA, chemistry not given here) [CR005371] | 8.10% | 8.42% | 0.31% |  |  |  |  |  |  |  |  |  |  |  |  |  |  |  |  |  |  |
| AUACCAGUCCAGCGAGGCAG (tested as dual guide RNA, chemistry not given here) [CR005366] | 76.67% | 77.00% | 0.33% |  |  |  |  |  |  |  |  |  |  |  |  |  |  |  |  |  |  |
| CAUUGACAGCAGGACUGCCU (tested as dual guide RNA, chemistry not given here) [CR005365] | 64.85% | 64.94% | 0.10% |  |  |  |  |  |  |  |  |  |  |  |  |  |  |  |  |  |  |
| AAAGGCUGCUGAUGAGACCU (tested as dual guide RNA, chemistry not given here) [CR005364] | 27.11% | 27.70% | 0.58% |  |  |  |  |  |  |  |  |  |  |  |  |  |  |  |  |  |  |
| AAAGUUCUAGAUGCCGUCCG (tested as dual guide RNA, chemistry not given here) [CR005369] | 33.92% | 42.01% | 8.09% |  |  |  |  |  |  |  |  |  |  |  |  |  |  |  |  |  |  |
| UGCACGGCCACAUUGAUGGC (tested as dual guide RNA, chemistry not given here) [CR003349] |  |  |  | 5.16% | 13.19% | 8.03% | 1.70% | 2.57% | 0.90% | 1.87% | 4.10% | 2.33% | 1.83% | 10.83% | 9.00% | 4.82% | 14.14% | 9.73% | 3.91% | 8.36% | Avg % Insert (TTR [7]): 4.46% |
| CACAUGCACGGCCACAUUGA (tested as dual guide RNA, chemistry not given here) [CR003350] |  |  |  | 16.77% | 22.31% | 5.54% | 10.33% | 26.63% | 16.33% | 5.73% | 28.13% | 22.40% | 5.07% | 24.84% | 19.77% | 41.64% | 52.91% | 13.43% | 4.44% | 29.60% | Avg % Insert (TTR [7]): 25.16% |
| GGGCGGCAAUGGUGUAGCGG (tested as dual guide RNA, chemistry not given here) [CR003379] |  |  |  | 20.98% | 26.32% | 5.34% | 1.27% | 13.20% | 12.00% | 0.27% | 6.57% | 6.30% | 0.34% | 16.86% | 16.51% | 16.48% | 19.18% | 3.38% | 2.04% | 19.74% | Avg % Insert (TTR [7]): 17.70% |
